Experimental findings from patent publication US20240262803A1, “COMPOUNDS, COMPOSITIONS AND METHODS OF TREATING DISORDERS” (Chungdu Anticancer Bioscience Ltd, priority 2021, published 2024) are described below.

Test [1] deals with gastric cancer cell line NCI-N87. Put plainly: Minimal effective concentration that elicits polyploidy, NCI-N87. Format: cell-based. To be noted: Homo sapiens, read-out: MECP: Minimal effective concentration that elicits polyploidy.
For test [2], the system named is RPEMYC^H2B-GFP cells. Put plainly: Mechanism-informed phenotypic screening assay (mitotic arrest, polyploidy; GE IN-Cell Analyzer 2000). Format: cell-based. To be noted: 20 nM to 20 μM, 24, 48 or 72 hours, read-out: Min. Effective conc. for polyploidy (≥5%). An outline of the steps: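 Cells expressing Histone 2B-EGFP (RPEMYC^H2B-GFP) were plated 18-24 h before exposure to compounds at 20 nM to 20 μM. At 24, 48 or 72 h, imaging scored mitotic arrest or change in DNA content. Value is the lowest concentration giving polyploid accumulation at 48 h.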

The test system of test [3] is breast cancer cell line MDA-MB-231. Put plainly: MTT assay of cellular proliferation, MDA-MB-231. Format: cell-based. To be noted: Homo sapiens, read-out: EC50: Concentration that inhibits 50% of proliferation. The gist of the method: (§1)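 In this viability read-out, mitochondrial reductase converts MTT to formazan, measured at 570 nm after 3˜4 h. Cells are treated at 20˜30% confluence with 1 nM to 10 μM compound, and the EC50 is the concentration halving proliferation.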

For test [4], the system named is colon cancer cell line HCT116. Put plainly: MTT assay of cellular proliferation, HCT116. Format: cell-based. To be noted: Homo sapiens, HCT-116, read-out: EC50: Concentration that inhibits 50% of proliferation. The gist of the method:
as §1

The subject of test [5] is RPEMYC^H2B-GFP cells. Put plainly: Mechanism-informed phenotypic screening assay (mitotic arrest, polyploidy; GE IN-Cell Analyzer 2000). Format: cell-based. To be noted: 20 nM to 20 μM, 24, 48 or 72 hours, read-out: Mitotic Arrest (≥5%).
In test [6] the test system is colon cancer cell line SW460. Put plainly: MTT assay of cellular proliferation, SW460. Format: cell-based. To be noted: Homo sapiens, SW480; read-out: EC50: Concentration that inhibits 50% of proliferation. An outline of the steps:
as §1
In general terms: Formazan colour is commonly taken as a measure of viable cells.

Test [7] deals with human lung adenocarcinoma cell line NCI-H23. Put plainly: Xenograft assay, NCI-H23. Format: in vivo. To be noted: NCI-H23 subcutaneous xenograft, Nu/Nu mice, oral gavage twice a day for 9 days, FIG. 3. Here is the method: (§2) Xenografts were initiated in immunocompromised (Nu/Nu) mice with the human lung adenocarcinoma cell line NCI-H23 (FIG. 3) and the human colon cancer cell line HCT116 (FIG. 4). Five million cells were injected subcutaneously into each mouse and treatment was initiated when the average tumor volumes reached 150 mm3 (n=5/groups). Tumor-bearing mice were randomized into different groups to receive either vehicle or indicated compounds. The compounds were administered through oral gavage twice a day for 9 days. Day 0 on the x-axis indicates the day that treatment was initiated. For these experiments, all compounds were first dissolved in DMSO and then diluted 1:10 into a mixture containing 50% PEG300 and 49% PBS, 1% Tween 80, pH2.2. 100 ul of drug solution was administered with each dose. Tumor volumes were determined once every three days and are calculated from digital caliper raw data by using the formula: Volume (mm3)=(L×W^2)/2. The value W (Width) is the smaller of two perpendicular tumor axes and the value L (Length) is the larger of two perpendicular axes. Mean tumor volume growth curves and means are calculated for each treatment group.

For test [8], the system named is cervical cancer cell line Hela. Put plainly: Minimal effective concentration that elicits polyploidy, Hela. Format: cell-based. To be noted: Homo sapiens, read-out: MECP: Minimal effective concentration that elicits polyploidy.
The subject of test [9] is colon cancer cell line HCT116. Put plainly: Minimal effective concentration that elicits polyploidy, HCT116. Format: cell-based. To be noted: Homo sapiens, HCT-116, read-out: MECP: Minimal effective concentration that elicits polyploidy.
For test [10], the system named is cervical cancer cell line Hela. Put plainly: MTT assay of cellular proliferation, Hela. Format: cell-based. To be noted: Homo sapiens, read-out: EC50: Concentration that inhibits 50% of proliferation. An outline of the steps:
as §1

In test [11] the test system is human colon cancer cell line HCT116. Put plainly: Xenograft assay, HCT116. Format: in vivo. To be noted: HCT116 subcutaneous xenograft, Nu/Nu mice, oral gavage twice a day for 9 days, FIG. 4. Here is the method: as §2
The subject of test [12] is liver cancer cell line T2 HCC. Put plainly: MTT assay of cellular proliferation, T2 HCC. Format: cell-based. To be noted: Mus musculus, read-out: EC50: Concentration that inhibits 50% of proliferation. The gist of the method:
as §1

Test [13] relates to lung cancer cell line NCI-H23. Put plainly: MTT assay of cellular proliferation, NCI-H23. Format: cell-based. To be noted: Homo sapiens, read-out: EC50: Concentration that inhibits 50% of proliferation. The gist of the method:
as §1

Test [14] concerns lung cancer cell line A549. Put plainly: Minimal effective concentration that elicits polyploidy, A549. Format: cell-based. To be noted: Homo sapiens, read-out: MECP: Minimal effective concentration that elicits polyploidy.
For test [15], the system named is liver cancer cell line T2 HCC. Put plainly: Minimal effective concentration that elicits polyploidy, T2 HCC. Format: cell-based. To be noted: Mus musculus, read-out: MECP: Minimal effective concentration that elicits polyploidy.
Test [16] deals with breast cancer cell line MDA-MB-231. Put plainly: Minimal effective concentration that elicits polyploidy, MDA-MB-231. To be noted: Homo sapiens, read-out: MECP: Minimal effective concentration that elicits polyploidy. Format: cell-based.
The next test concerns SW480. Put plainly: Minimal effective concentration that elicits polyploidy, SW480. Format: cell-based. To be noted: Homo sapiens, read-out: MECP: Minimal effective concentration that elicits polyploidy.
Test [17] relates to lung cancer cell line A549. Put plainly: MTT assay of cellular proliferation, A549. To be noted: Homo sapiens, read-out: EC50: Concentration that inhibits 50% of proliferation. Format: cell-based. The gist of the method: as §1
For test [18], the system named is gastric cancer cell line NCI-N87. Put plainly: MTT assay of cellular proliferation, NCI-N87. Format: cell-based. To be noted: Homo sapiens, read-out: EC50: Concentration that inhibits 50% of proliferation. The gist of the method: as §1
The subject of test [19] is lung cancer cell line NCI-H23. Put plainly: Minimal effective concentration that elicits polyploidy, NCI-H23. To be noted: Homo sapiens, read-out: MECP: Minimal effective concentration that elicits polyploidy. Format: cell-based.

pEC50: −log10 of the molar value. “Also recorded” adds a separate entry of the source. Where two headings read alike, the source gives them in different places.

In the case of `COc1cc(Oc2ncccc2-c2ccncc2)cc(C(F)(F)F)c1` [Compound 9, 2-(3-methoxy-5-(trifluoromethyl)phenoxy)-3,4′-bipyridine], the minimal effective concentration in test [1] is 0.001 to 1 µM; in the test on RPEMYC^H2B-GFP cells [2], 1 µM; in the test on RPEMYC^H2B-GFP cells [5], 1 µM; in [8] it was 0.001 to 1 µM; in test [9] it was 0.001 to 1 µM; in test [14] it was 0.001 to 1 µM. For the same compound, the minimal effective concentration (in test [15]; in test [16]; in the test with SW480; in test [19]) was 0.001 to 1 µM throughout. Moreover, the pEC50 in [3], in [4], in test [6], in [10], in [12] and in [13] was 6.00 to 9.00 in each case. Besides, the pEC50 in test [17] and in test [18] was 6.00 to 9.00 in each case. In addition, the “tumor growth (tumor volume)” value in [7] and in test [11] was “suppress the growth; also recorded: suppressing the tumor growth; also recorded: eliciting tumor regression” throughout.

Regarding `COc1cc(OC)cc(Oc2ncccc2-c2ccnc(OC)c2)c1` [Compound 32, 2-(3,5-dimethoxyphenoxy)-2′-methoxy-3,4′-bipyridine], the minimal effective concentration in [1] is 0.001 to 1 µM; with RPEMYC^H2B-GFP cells [2], 1 µM; in the test with RPEMYC^H2B-GFP cells [5] it was 1 µM; in test [8], 0.001 to 1 µM; in [9], 0.001 to 1 µM; in test [14] it was 0.001 to 1 µM. Besides, the minimal effective concentration (in test [15]; in [16]; with SW480; in test [19]) was 0.001 to 1 µM each time. The pEC50 in test [3], in test [4], in test [6], in test [10], in test [12] and in test [13] was 6.00 to 9.00 each time. In addition, the pEC50 in test [17] and in test [18] was 6.00 to 9.00 throughout. Besides, the “tumor growth (tumor volume)” value in [7] and in [11] was “suppressing the tumor growth” each time.

Consider `COc1cc(Oc2ncccc2-c2ccncc2)cc(-n2cccn2)c1` [Compound 10, 2-(3-methoxy-5-(1H-pyrazol-1-yl)phenoxy)-3,4′-bipyridine], for which the minimal effective concentration in [1] is 0.001 to 1 µM; in the test with RPEMYC^H2B-GFP cells [2] it was 1 µM; with RPEMYC^H2B-GFP cells [5], 1 µM; in [8] it was 0.001 to 1 µM; in test [9], 0.001 to 1 µM; in [14] it was 0.001 to 1 µM. Also, the minimal effective concentration (in test [15]; in [16]; in the test on SW480; in [19]) was 0.001 to 1 µM each time. The pEC50 in [3], in test [4], in test [6], in test [10], in test [12] and in test [13] was 6.00 to 9.00 in each case. In addition, the pEC50 in test [17] and in test [18] was 6.00 to 9.00 in each case. In addition, the “tumor growth (tumor volume)” value in test [7] and in [11] was “suppress the growth; also recorded: suppressing the tumor growth” throughout.
